Our source for the IC50 values is patent publication US8735384B2, “Amino heteroaryl compounds as beta-secretase modulators and methods of use” (Amgen Inc., priority 2010, dated 2014).

A value given as a limit tells only on which side of the number the result lay.

One assay addresses BACE1 (Homo sapiens, UniProt P56817). In words: In vitro enzymatic BACE FRET assay. It counts as biochemical. To be noted: beta secretase enzyme 0.2 nM, FRET substrate 50 nM, pH 4.2; read-out: BACE1 FRET assay (IC50 class). As for the experimental part:
In Vitro Enzymatic BACE FRET (Fluorescence Resonance Energy Transfer) Assay (Enzyme Assay Data in Table 1)
The assay buffer used in this screen is 0.05 M acetate, pH 4.2, 10% DMSO final, 100 uM genapol (which is a nonionic detergent, below its Critical Micelle Concentration). The beta secretase enzyme (0.2 nM) is pre-incubated for one hour with inhibitors, typically in about 1 uL of DMSO according to a serial dilution, are added thereto. The assay is effectively started by the addition of FRET substrate (50 nM) and the combination is incubated for one hour. The FRET assay is terminated with by addition of Tris buffer, which raises the pH to neutrality, and the fluorescence is determined. The FRET substrate is a peptide with commercially available fluorophore and quencher, on opposite sides of the BACE cleavage site. Proteolytic cleavage of the FRET substrate releases quenching of fluorescence (excitation […] and […]).
Of the compounds tested, the in-vitro BACE FRET enzyme data for each of Examples 1-220, where available at the time of filing this application, is provided in Table 1.

For assay [1], the system named is Aβ40 in conditioned medium of cells stably expressing Amyloid Precursor Protein (APP). In words: In vitro BACE cell-based assay (HEK cell assay), Aβ40 sandwich ELISA. As to conditions: Homo sapiens, HEK293, 24 h, inhibition of Aβ40, 24 h incubation, read-out: HEK cell assay (IC50 class). As for the experimental part: In Vitro BACE Cell-Based Assay:
The cell-based assay measures inhibition or reduction of Aβ40 in conditioned medium of test compound treated cells expressing amyloid precursor protein.
Cells stably expressing Amyloid Precursor Protein (APP) were plated at a density of 40K cells/well in 96 well plates (Costar). The cells were cultivated for 24 hours at 37° C. and 5% CO2 in DMEM supplemented with 10% FBS. The test compounds were then added to cells in 10-point dose response concentrations with the starting concentration being either 100 μM or 10 μM. The compounds were diluted from stock solutions in DMSO and the final DMSO concentration of the test compounds on cells was 0.1%. After 24 h of incubation with the test compounds the supernatant conditioned media was collected and the Aβ 40 levels were determined using a sandwich ELISA. The IC50 of the compound was calculated from the percent of control or percent inhibition of Aβ 40 as a function of the concentration of the test compound.
The sandwich ELISA to detect Aβ 40 was performed in 96 well microtiter plates, which were pre-treated with goat anti-rabbit IgG (Pierce). The capture and detecting antibody pair that were used to detect Aβ 40 from cell supernatants were affinity purified pAb40 (Biosource) and biotinylated 6E10 (Signet Labs Inc.), respectively. The optimal concentration for the pAb40 antibody was 3 μg/ml in Superblock/TBS (Pierce) that was supplemented with 0.05% Tween 20 (Sigma). Optimal concentration for the detection antibody 6E10-biotinylated was 0.5 μg/ml in Superblock/TBS (Pierce) that had been supplemented with 2% normal goat serum and 2% normal mouse serum.
Cellular supernatants were incubated with the capture antibody for 3 h at 4° C., followed by 3 wash steps in TBS-tween (0.05%). The detecting antibody incubation was for 2 h at 4° C., again followed by the wash steps as described previously. The final readout of the ELISA is Time-Resolved Fluorescence (counts per minute) using Delfia reagents Streptavidin-Europium and Enhancement solutions (Perkin Elmer) and the Victor 2 multilabel counter (Perkin Elmer).
(In general: An ELISA detects its analyte on a solid surface through an enzyme-linked reagent.)

BACE1, sequence (P56817 46-501, species assumed): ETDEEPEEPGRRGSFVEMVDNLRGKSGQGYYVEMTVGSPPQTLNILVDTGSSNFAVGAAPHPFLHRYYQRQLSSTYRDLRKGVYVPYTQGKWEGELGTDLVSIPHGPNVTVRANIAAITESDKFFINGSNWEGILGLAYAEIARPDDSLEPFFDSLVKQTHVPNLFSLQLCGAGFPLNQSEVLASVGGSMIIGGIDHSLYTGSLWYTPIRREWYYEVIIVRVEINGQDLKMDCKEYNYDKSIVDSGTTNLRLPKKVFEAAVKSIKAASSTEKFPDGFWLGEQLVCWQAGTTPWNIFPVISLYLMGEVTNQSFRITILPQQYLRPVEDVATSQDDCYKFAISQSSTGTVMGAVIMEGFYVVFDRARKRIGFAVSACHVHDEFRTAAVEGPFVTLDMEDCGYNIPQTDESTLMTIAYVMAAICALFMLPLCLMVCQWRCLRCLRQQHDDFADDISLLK

For the compound `CO/N=C(\c1ccccc1)c1cccc(C)c1-c1ccc2nc(N)c(N3CCOCC3)cc2c1` [Example 15, (E)-(2-(2-amino-3-morpholinoquinolin-6-yl)-3-methylphenyl)(phenyl)methanone O-methyl oxime], the IC50 (commonly the concentration that inhibits the measured activity by half) was less than 100 nM at BACE1 and 501 to 1000 nM in assay [1].
The matching figures for `Cc1cccc(C(=O)c2ccncn2)c1-c1ccc2nc(N)c(N3CCOCC3)cc2c1` [Example 23, (2-(2-amino-3-morpholinoquinolin-6-yl)-3-methylphenyl)(pyrimidin-4-yl)methanone]: 100 to 500 nM and more than 5000 nM.
The matching figures for `COc1cccc(Cc2cccc(C)c2-c2ccc3nc(N)c(N4CCOCC4)cc3c2)c1` [Example 203, 6-(2-(3-methoxybenzyl)-6-methylphenyl)-3-morpholinoquinolin-2-amine]: less than 100 nM and more than 5000 nM.
The matching figures for `Cc1cccc(C(=O)n2ccc3ccccc32)c1-c1ccc2nc(N)c(N3CCOCC3)cc2c1` [Example 26, (2-(2-amino-3-morpholinoquinolin-6-yl)-3-methylphenyl)(1H-indol-1-yl)methanone]: 100 to 500 nM and more than 5000 nM.
In the case of `Cc1cccc(C(N)c2ncccc2Cl)c1-c1ccc2nc(N)c(N3CCOCC3)cc2c1` (stereo not drawn) [Example 197, 6-(2-(amino(3-chloropyridin-2-yl)methyl)-6-methylphenyl)-3-morpholinoquinolin-2-amine], the concentration for half-maximal inhibition (IC50) (on BACE1; in assay [1]) was 100 to 500 nM in each case.
In the case of `Cc1cccc(C(N)c2ccccc2)c1-c1ccc2nc(N)c(N3CCOCC3)cc2c1` (stereo not drawn) [Example 17, 6-(2-(amino(phenyl)methyl)-6-methylphenyl)-3-morpholinoquinolin-2-amine], the IC50 (at BACE1; in assay [1]) was less than 100 nM in each case.
For the compound `Cc1cccc(Cc2ccccc2F)c1-c1ccc2nc(N)c(N3CCOCC3)cc2c1` [Example 202, 6-(2-(2-fluorobenzyl)-6-methylphenyl)-3-morpholinoquinolin-2-amine], the IC50 at BACE1 was less than 100 nM; in assay [1], 1010 to 5000 nM.
For the compound `Cc1cccc(C(=O)N2CCCC2)c1-c1ccc2nc(N)c(N3CCCC3)cc2c1` [Example 60, (2-(2-amino-3-(pyrrolidin-1-yl)quinolin-6-yl)-3-methylphenyl)(pyrrolidin-1-yl)methanone], the IC50 on BACE1 lay within 100 to 500 nM; in assay [1], 1010 to 5000 nM.
The matching figures for `CCOCC1CCN(C(=O)c2cccc(C)c2-c2ccc3nc(N)c(N4CCOCC4)cc3c2)CC1` [Example 74, (2-(2-amino-3-morpholinoquinolin-6-yl)-3-methylphenyl)(4-(ethoxymethyl)piperidin-1-yl)methanone]: less than 100 nM and 1010 to 5000 nM.
On the same counts, the results for `CCOC1CCN(C(=O)c2cccc(C)c2-c2ccc3nc(N)c(N4CCOCC4)cc3c2)CC1` [Example 76, (2-(2-amino-3-morpholinoquinolin-6-yl)-3-methylphenyl)(4-ethoxypiperidin-1-yl)methanone] are less than 100 nM and 1010 to 5000 nM.
On the same counts, the results for `Cc1cccc(C(=O)N2CCOCC2)c1-c1ccc2nc(N)c(N3CCOCC3)cc2c1` [Example 59, (2-(2-amino-3-morpholinoquinolin-6-yl)-3-methylphenyl)(morpholino)methanone] are 100 to 500 nM and 1010 to 5000 nM.
Turning to `Cc1cccc(C(=O)N2CCCC2)c1-c1ccc2nc(N)c(N3CCOC(C)(C)C3)cc2c1` [Example 215, (2-(2-amino-3-(2,2-dimethylmorpholino)quinolin-6-yl)-3-methylphenyl)(pyrrolidin-1-yl)methanone], the IC50 at BACE1 was less than 100 nM; in assay [1], 501 to 1000 nM.
The matching figures for `Cc1cccc(C(=O)N2CCC(C(C)(C)C)CC2)c1-c1ccc2nc(N)c(N3CCOCC3)cc2c1` [Example 93, (2-(2-amino-3-morpholinoquinolin-6-yl)-3-methylphenyl)(4-tert-butylpiperidin-1-yl)methanone]: less than 100 nM and 501 to 1000 nM.
On the same counts, the results for `Nc1nc2ccc(-c3cccc(Cl)c3C(=O)N3CCCC3)cc2cc1N1CCOCC1` [Example 141, (2-(2-amino-3-morpholinoquinolin-6-yl)-6-chlorophenyl)(pyrrolidin-1-yl)methanone] are 1010 to 5000 nM and more than 5000 nM.
On the same counts, the results for `CC(C)(C)CCc1cccc(C(=O)N2CCC2)c1-c1ccc2nc(N)c(N3CCOCC3)cc2c1` [Example 164, (2-(2-amino-3-morpholinoquinolin-6-yl)-3-(3,3-dimethylbutyl)phenyl)(azetidin-1-yl)methanone] are less than 100 nM and less than 100 nM.
Turning to `CCCC(=N)c1cccc(C)c1-c1ccc2nc(N)c(N3CCOCC3)cc2c1` [Example 14, 6-(2-(1-iminobutyl)-6-methylphenyl)-3-morpholinoquinolin-2-amine], the IC50 was 100 to 500 nM at BACE1 and more than 5000 nM in assay [1].
On the same counts, the results for `Cc1ccccc1C(=O)c1cccc(C)c1-c1ccc2nc(N)c(N3CCOCC3)cc2c1` [Example 3, (2-(2-amino-3-morpholinoquinolin-6-yl)-3-methylphenyl)(o-tolyl)methanone] are less than 100 nM and 501 to 1000 nM.
In the case of `Cc1cccc(C(=O)N2CCCC2C)c1-c1ccc2nc(N)c(N3CCOCC3)cc2c1` (stereo not drawn) [Example 67, (2-(2-amino-3-morpholinoquinolin-6-yl)-3-methylphenyl)(2-methylpyrrolidin-1-yl)methanone], the IC50 is less than 100 nM at BACE1 and 100 to 500 nM in assay [1].
On the same counts, the results for `Cc1cccnc1C(=O)c1cccc(C)c1-c1ccc2nc(N)c(N3CCOCC3)cc2c1` [Example 189, (2-(2-amino-3-morpholinoquinolin-6-yl)-3-methylphenyl)(3-methylpyridin-2-yl)methanone] are 100 to 500 nM and 501 to 1000 nM.
With `Cc1cccc(C(=O)N2CCC(F)(F)CC2)c1-c1ccc2nc(N)c(N3CCOCC3)cc2c1` [Example 109, (2-(2-amino-3-morpholinoquinolin-6-yl)-3-methylphenyl)(4,4-difluoropiperidin-1-yl)methanone], the IC50 on BACE1 was less than 100 nM; in assay [1] it was 501 to 1000 nM.
The matching figures for `Cc1cccc(N(C)C(=O)CC(C)(C)C)c1-c1ccc2nc(N)c(N3CCOCC3)cc2c1` [Example 50, N-(2-(2-amino-3-morpholinoquinolin-6-yl)-3-methylphenyl)-N,3,3-trimethylbutanamide]: 501 to 1000 nM and 1010 to 5000 nM.
For the compound `Cc1cccc(C(=O)N2CCCC(C)(C)C2)c1-c1ccc2nc(N)c(N3CCOCC3)cc2c1` [Example 86, (2-(2-amino-3-morpholinoquinolin-6-yl)-3-methylphenyl)(3,3-dimethylpiperidin-1-yl)methanone], the figures for the IC50 (on BACE1; in assay [1]) were less than 100 nM and 100 to 500 nM, respectively.
With `Cc1cccc(N2CC(C)(C)OCC2=O)c1-c1ccc2nc(N)c(N3CCOCC3)cc2c1` [Example 49, 4-(2-(2-amino-3-morpholinoquinolin-6-yl)-3-methylphenyl)-6,6-dimethylmorpholin-3-one], the IC50 on BACE1 is 100 to 500 nM; in assay [1], 1010 to 5000 nM.
With `Nc1nc2ccc(-c3ccccc3C(=O)OC3CCCC3)cc2cc1N1CCOCC1` [Example 145, cyclopentyl 2-(2-amino-3-morpholinoquinolin-6-yl)benzoate], the IC50 was less than 100 nM at BACE1 and 501 to 1000 nM in assay [1].
